SMILES strings stand for the structures.

These results are taken from paper PMC11985751, “Synthesis, bioactivity, and molecular docking studies: novel arylpiperazine derivatives as potential new-resistant AR antagonists” (Frontiers in Chemistry, 2025).

The test system of one test is PC-3. The test is described as follows: In vitro cytotoxicity, CCK-8 assay. It is filed as cell-based, human. The conditions noted are these: Homo sapiens, PC-3, PC-3 cells, CCK-8, mean ± SD of three trials. On the procedure: (§1) PC-3 and WPMY-1 cells were cultured in Dulbecco’s modiffcation Eagle’s medium (DMEM, Invitrogen, Carlsbad, CA, United States) supplemented with 10% fetal bovine serum (FBS, Hyclone, Logan, UT, United States), 100 U/mL penicillin and 0.1 mg/mL streptomycin (Invitrogen). DU145 cells were cultured in RPMI1640 media supplemented with 10% fetal bovine serum (FBS, Hyclone), 100 U/mL penicillin and 0.1 mg/mL streptomycin (Invitrogen). LNCaP cells were cultured in F12 media supplemented with 10% fetal bovine serum (FBS, Hyclone), 100 U/mL penicillin and 0.1 mg/mL streptomycin (Invitrogen). The cells were incubated at 37°C in a humidified atmosphere with 5% CO2([Chen et al., 2025]; [Jiang et al., 2024]). […]
(§2) The compound concentrations were set at 30, 15, 7.5, 3.75, 1.88, and 0.94 μmol/L. The absorbance (A) was measured at 450 nm using a microplate reader. […] All experiments were repeated three times under identical conditions, and the mean value was taken as the final result.
(§3) The cytotoxic activity of derivatives 5–24 against three human prostate cancer cell lines (PC-3, LNCaP, and DU145) and one type of human normal prostate epithelial cells was evaluated using the CCK-8 method.
On the technique in general: Formazan colour is commonly taken as a measure of viable cells.

For the next test, the system named is LNCaP. The experiment in a line: In vitro cytotoxicity, CCK-8 assay. It is filed as cell-based, human. The conditions noted are these: Homo sapiens, LNCaP, LNCaP cells, CCK-8, mean ± SD of three trials. The procedure: PC-3 and WPMY-1 cells were cultured in Dulbecco’s modiffcation Eagle’s medium (DMEM, Invitrogen, Carlsbad, CA, United States) supplemented with 10% fetal bovine serum (FBS, Hyclone, Logan, UT, United States), 100 U/mL penicillin and 0.1 mg/mL streptomycin (Invitrogen). DU145 cells were cultured in RPMI1640 media supplemented with 10% fetal bovine serum (FBS, Hyclone), 100 U/mL penicillin and 0.1 mg/mL streptomycin (Invitrogen). LNCaP cells were cultured in F12 media supplemented with 10% fetal bovine serum (FBS, Hyclone), 100 U/mL penicillin and 0.1 mg/mL streptomycin (Invitrogen). The cells were incubated at 37°C in a humidified atmosphere with 5% CO2([Chen et al., 2025]; [Jiang et al., 2024]).
The proliferative capacity of cells was evaluated through the implementation of a Cell Counting Kit-8 (CCK-8) assay, supplied by Dojindo (Japan), to quantify cellular growth. Post-transfection, cells were dispensed into a 96-well microplate at a density of 3 × 10^3 cells per well and incubated for intervals of 0, 24, 48, 72, 96, and 120 h. Following this, 10 μL of the CCK-8 solution was introduced into each well and the plates were returned to the incubator for an additional 2-h period at 37°C under 5% CO2 conditions. Absorbance readings at 450 nm were subsequently taken using an ELISA reader manufactured by Bio Tek (United States) ([Chen et al., 2022]; [Zhou et al., 2024]).
as §2, §3

The subject of a further test is DU145. The experiment in a line: In vitro cytotoxicity, CCK-8 assay. Format: cell-based. As to conditions: Homo sapiens, DU-145; DU145 cells, CCK-8, mean ± SD of three trials. The procedure:
as §1, §2, §3

A further test relates to WPMY-1. The experiment in a line: In vitro cytotoxicity, CCK-8 assay (normal prostatic epithelial cells). As to conditions: Homo sapiens; WPMY-1 normal prostatic epithelial cells, CCK-8, mean ± SD of three trials. It is filed as cell-based. On the procedure: as §1, §2, §3
For another test, the target named is T1, AR (Homo sapiens, UniProt P10275).
T1 sequence (P10275 1-920): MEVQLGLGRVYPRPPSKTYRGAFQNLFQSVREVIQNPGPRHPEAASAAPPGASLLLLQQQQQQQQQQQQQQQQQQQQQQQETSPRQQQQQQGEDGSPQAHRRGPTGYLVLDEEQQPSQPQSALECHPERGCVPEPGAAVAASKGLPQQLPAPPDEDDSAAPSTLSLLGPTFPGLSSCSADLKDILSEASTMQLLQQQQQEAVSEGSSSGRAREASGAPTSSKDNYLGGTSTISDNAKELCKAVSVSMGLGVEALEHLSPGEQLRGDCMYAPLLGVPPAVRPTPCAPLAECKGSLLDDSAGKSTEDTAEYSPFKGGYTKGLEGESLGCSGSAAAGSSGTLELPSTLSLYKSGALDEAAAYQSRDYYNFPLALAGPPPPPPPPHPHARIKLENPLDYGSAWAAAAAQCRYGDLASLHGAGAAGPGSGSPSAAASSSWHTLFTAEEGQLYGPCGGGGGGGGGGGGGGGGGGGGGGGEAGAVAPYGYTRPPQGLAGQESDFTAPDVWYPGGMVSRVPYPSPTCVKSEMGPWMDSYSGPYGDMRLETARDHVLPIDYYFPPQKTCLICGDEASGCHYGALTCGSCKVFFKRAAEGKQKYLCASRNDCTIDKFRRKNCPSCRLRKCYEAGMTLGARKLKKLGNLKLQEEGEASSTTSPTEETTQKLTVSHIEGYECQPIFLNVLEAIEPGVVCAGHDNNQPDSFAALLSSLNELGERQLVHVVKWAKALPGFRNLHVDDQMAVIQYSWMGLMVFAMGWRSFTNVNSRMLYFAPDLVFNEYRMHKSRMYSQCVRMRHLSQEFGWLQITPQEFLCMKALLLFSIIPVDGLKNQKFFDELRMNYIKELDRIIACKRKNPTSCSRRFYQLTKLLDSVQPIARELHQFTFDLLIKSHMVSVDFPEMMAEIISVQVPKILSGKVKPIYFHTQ
The test is described as follows: AR reporter gene (luciferase) assay, co-treatment with 1 nM R1881. Format: cell-based. The conditions noted are these: 10 μM compound, inhibition rate as ratio to R1881 control, read-out: AR antagonistic activity% (10 μM). The procedure:
RLUs were measured using a luminometer (GloMaxTM 96-Microplate Luminometer, Promega) and are reported as the mean ± SEM of three individual experiments. For agonists, fold of induction = LUinduced/RLUuninduced. For antagonists, % of control = 100 × RLU (agonist + antagonist)/RLU (agonist alone). All RLUs were normalized against ffreffy RLUs/Renilla RLUs. Data are expressed as EC50/IC50 values in μM, and the IC50 of […] (μM) was calculated by plotting the data using nonlinear regression analysis in Graph-Pad Prism 5 software.
Background: In a reporter assay the amount or activity of a reporter protein is the signal.

In another test the target is T2, AR-LBD (GST) (Rattus norvegicus, UniProt P15207).
T2 sequence (P15207 651-882 limits assumed): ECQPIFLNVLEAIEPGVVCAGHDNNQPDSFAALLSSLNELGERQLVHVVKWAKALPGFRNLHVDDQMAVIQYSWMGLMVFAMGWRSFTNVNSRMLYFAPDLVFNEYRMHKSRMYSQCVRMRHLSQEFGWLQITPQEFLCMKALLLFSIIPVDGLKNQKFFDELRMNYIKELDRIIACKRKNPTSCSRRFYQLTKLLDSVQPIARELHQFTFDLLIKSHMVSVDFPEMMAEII
The test is described as follows: Fluorescence polarization, PolarScreen AR Competitor Assay, Green. (Polarisation of emitted light reports the rotation of a fluorescent probe.)

Experimental for AR-LBD (GST): Brieffy, the assay entails titration of the test compound against a preformed complex of Fluormone™AL Green and the AR-LBD (GST). […] Data analysis for the ligand binding assays was performed using Prism software (GraphPad Software, Inc.).

For orientation: IC50 means the concentration that gives 50% inhibition. With `c1ccc(OCCc2ccc(CN3CCN(C(c4ccccc4)c4ccccc4)CC3)cc2)cc1` [Compound 5, 1-benzhydryl-4-(4-(2-phenoxyethyl)benzyl)piperazine], the IC50 in the test on PC-3 was 13.08 ± 0.12 µM; in the test with LNCaP, above 50 µM; in the test on DU145 it was above 50 µM; in the test on WPMY-1 it was above 50 µM.

On to `Fc1ccc(OCCc2ccc(CN3CCN(C(c4ccccc4)c4ccccc4)CC3)cc2)cc1` [Compound 6, 1-benzhydryl-4-(4-(2-(4-fluorophenoxy)ethyl)benzyl)piperazine], for which the IC50 is 34.39 ± 0.17 µM in the test on PC-3, above 50 µM in the test on LNCaP, above 50 µM in the test with DU145 and above 50 µM in the test on WPMY-1.

`N#Cc1ccc(OCCc2ccc(CN3CCN(C(c4ccccc4)c4ccccc4)CC3)cc2)cc1` [Compound 8, 4-(4-((4-benzhydrylpiperazin-1-yl)methyl)phenethoxy)benzonitrile]: the IC50 in the test on PC-3 was determined as 12.54 ± 0.11 µM; in the test on LNCaP, 22.36 ± 0.2 µM; in the test with DU145, 19.83 ± 0.14 µM; in the test with WPMY-1 it was 17.56 ± 0.12 µM.

Turning to `Ic1ccc(OCCc2ccc(CN3CCN(C(c4ccccc4)c4ccccc4)CC3)cc2)cc1` [Compound 9, 1-benzhydryl-4-(4-(2-(4-iodophenoxy)ethyl)benzyl)piperazine], the IC50 was 15.2 ± 0.19 µM in the test with PC-3, above 50 µM in the test on LNCaP, above 50 µM in the test on DU145 and above 50 µM in the test on WPMY-1.

In the case of `Clc1ccc(OCCc2ccc(CN3CCN(C(c4ccccc4)c4ccccc4)CC3)cc2)cc1Cl` [Compound 10, 1-benzhydryl-4-(4-(2-(3,4-dichlorophenoxy)ethyl)benzyl)piperazine], the IC50 with PC-3 is 17.44 ± 0.07 µM; in the test with LNCaP it was above 50 µM; with DU145, above 50 µM; in the test with WPMY-1, above 50 µM.

In the case of `Cc1cccc(OCCc2ccc(CN3CCN(C(c4ccccc4)c4ccccc4)CC3)cc2)c1` [Compound 12, 1-benzhydryl-4-(4-(2-(m-tolyloxy)ethyl)benzyl)piperazine], the IC50 in the test on PC-3 is above 50 µM; in the test with LNCaP, 19.6 ± 0.23 µM; in the test on DU145, 34.43 ± 0.15 µM; in the test with WPMY-1 it was 28.54 ± 0.16 µM.

For `Clc1ccccc1OCCc1ccc(CN2CCN(C(c3ccccc3)c3ccccc3)CC2)cc1` [Compound 13, 1-benzhydryl-4-(4-(2-(2-chlorophenoxy)ethyl)benzyl)piperazine], the IC50 was 15.35 ± 0.08 µM in the test with PC-3, 12.2 ± 0.25 µM in the test with LNCaP, 21.24 ± 0.16 µM in the test with DU145 and 17.83 ± 0.17 µM in the test on WPMY-1.

For the compound `Brc1ccccc1OCCc1ccc(CN2CCN(C(c3ccccc3)c3ccccc3)CC2)cc1` [Compound 14, 1-benzhydryl-4-(4-(2-(2-bromophenoxy)ethyl)benzyl)piperazine], the IC50 in the test on PC-3 was 19.12 ± 0.16 µM; in the test with LNCaP, above 50 µM; with DU145, above 50 µM; in the test with WPMY-1, above 50 µM.

As for `Cc1ccc(OCCc2ccc(CN3CCN(C(c4ccccc4)c4ccccc4)CC3)cc2)cc1` [Compound 15, 1-benzhydryl-4-(4-(2-(p-tolyloxy)ethyl)benzyl)piperazine], the IC50 turned out to be 20.49 ± 0.12 µM in the test with PC-3, 9.29 ± 0.23 µM in the test with LNCaP, 13.7 ± 0.14 µM in the test on DU145 and 14.72 ± 0.14 µM in the test on WPMY-1.

As to `CCOc1ccc(OCCc2ccc(CN3CCN(C(c4ccccc4)c4ccccc4)CC3)cc2)cc1` [Compound 16, 1-benzhydryl-4-(4-(2-(4-ethoxyphenoxy)ethyl)benzyl)piperazine], the IC50 in the test with PC-3 was 13.6 ± 0.09 µM; in the test with LNCaP it was above 50 µM; in the test with DU145 it was above 50 µM; in the test on WPMY-1 it was above 50 µM.

Regarding `c1ccc(C(c2ccccc2)N2CCN(Cc3ccc(CCOc4cccc5c4CCCC5)cc3)CC2)cc1` [Compound 17, 1-benzhydryl-4-(4-(2-((5,6,7,8-tetrahydronaphthalen-1-yl)oxy)ethyl)benzyl)piperazine], the IC50 was 7.32 ± 0.08 µM with DU145, above 50 µM with WPMY-1 and 1.14 ± 0.12 µM at AR-LBD (GST). In addition, at AR, the activity at 10 µM is above 60%.

`c1ccc(C(c2ccccc2)N2CCN(Cc3ccc(CCOc4ccc5c(c4)CCCC5)cc3)CC2)cc1` [Compound 18, 1-benzhydryl-4-(4-(2-((5,6,7,8-tetrahydronaphthalen-2-yl)oxy)ethyl)benzyl)piperazine]: the IC50 was 5.02 ± 0.12 µM with PC-3, above 50 µM in the test with LNCaP, 14.4 ± 0.15 µM with DU145 and above 50 µM in the test on WPMY-1.

In the case of `Cc1ccccc1OCCc1ccc(CN2CCN(C(c3ccccc3)c3ccccc3)CC2)cc1` [Compound 19, 1-benzhydryl-4-(4-(2-(o-tolyloxy)ethyl)benzyl)piperazine], the IC50 in the test on DU145 was 0.87 ± 0.04 µM; in the test with WPMY-1 it was above 50 µM; on AR-LBD (GST) it was 1.01 ± 0.03 µM. In addition, the activity at 10 µM on AR was above 60%.

For the compound `Cc1ccc(OCCc2ccc(CN3CCN(C(c4ccccc4)c4ccccc4)CC3)cc2)cc1C` [Compound 20, 1-benzhydryl-4-(4-(2-(3,4-dimethylphenoxy)ethyl)benzyl)piperazine], the values for the IC50 in the test on DU145, with WPMY-1 and at AR-LBD (GST) were 3.89 ± 0.14 µM, above 50 µM and 1.66 ± 0.12 µM, respectively. Moreover, the activity at 10 µM at AR is above 60%.

For the compound `COc1ccccc1N1CCN(CC(O)COc2cccc3ccccc23)CC1` (stereo not drawn) [Naftopidil, reference compound], the IC50 in the test on PC-3 is 42.1 ± 0.79 µM; with LNCaP, 22.4 ± 0.61 µM; in the test with DU145, 34.58 ± 0.31 µM; in the test on WPMY-1, above 50 µM.
